Data on seven compounds can be found in PMC12195695, “Multifaceted Biological Activity of Rutin, Quercetin, and Quercetin’s Glucosides” (Molecules, 2025).

Where “and” joins values, the source holds several entries; their conditions need not be identical. Equal values may be shown once. Where a name gives a salt, the structure may show the parent alone. Read-outs that look alike come from different tables or passages of the source. Marks after values point to notes of the source that are not given here.

Data set [1] deals with advanced glycation endproduct (AGE) formation in BSA/glucose model system. Description: Inhibition of AGE formation, BSA/glucose model system. Format: biochemical. As to conditions: fluorescence, linear regression, read-out: IC50 against AGE formation, BSA/Glucose Model System. The procedure:
(§1) The positive control aminoguanidine and standards of rutin, quercetin, and quercetin’s glucosides were dissolved in DMSO and then in a phosphate buffer. The inhibitory activity against the formation of AGEs was analyzed in BSA/glucose and BSA/MGO model systems, as reported by Thornalley, and the fluorescent intensity was measured. The percentage of inhibition of AGEs was calculated from the obtained fluorescence of the test solution with or without inhibitors.

Data set [2] has as its system advanced glycation endproduct (AGE) formation in BSA/MGO model system. Description: Inhibition of AGE formation, BSA/MGO model system. Format: biochemical. As to conditions: for IC50: BSA/MGO, fluorescence, linear regression, read-out: IC50 against AGE formation, BSA/MGO Model System; for anti-AGE activity higher in comparison to Ru / anti-AGE activity higher in relation to AG: BSA/MGO model system. As for the experimental part:
as §1

Data set [3] can be described thus: Cyclic voltammetry: oxidation potential and antioxidant activity vs Trolox. Format: physicochemical. The conditions noted are these: for Antioxidant power class based on first oxidation potential: classification according to Blasco et al. [51]; for Antioxidant Activity: cyclic voltammetry, area under anodic wave, 0.1 mM compound, Trolox regression, n = 6. As for the experimental part:
A galvanostat G 750 (Gamry Ins., Warminster, PA, USA) with a conventional three-electrode system was used for the cyclic voltammetric experiments, with Ru, Q, Ru, Q4′G, Q3G, and Q34′G (0.1 mM in 80% methanol) or Trolox solutions (0.1–2.5 mM) mixed with 0.2 M sodium acetate–acetic buffer (pH 4.5 in 80% methanol) at a ratio of 1:1 (v/v), as has previously been described in detail. The cyclic voltammograms were acquired in the range of −100 to 1300 mV at a scanning rate of 100 mV s^−1.

Data set [4] has as its target T1, angiotensin-converting enzymes (ACEs) from porcine kidneys (EC 3.4.15.1) (Sus scrofa, UniProt F1RRW5).
T1 construct: angiotensin-converting enzymes (ACEs) from porcine kidneys (EC 3.4.15.1); purchased Sigma (Sigma Chemical Company, Saint Louis, MO, USA); host or cells: porcine kidney
T1 sequence (F1RRW5 34-1309): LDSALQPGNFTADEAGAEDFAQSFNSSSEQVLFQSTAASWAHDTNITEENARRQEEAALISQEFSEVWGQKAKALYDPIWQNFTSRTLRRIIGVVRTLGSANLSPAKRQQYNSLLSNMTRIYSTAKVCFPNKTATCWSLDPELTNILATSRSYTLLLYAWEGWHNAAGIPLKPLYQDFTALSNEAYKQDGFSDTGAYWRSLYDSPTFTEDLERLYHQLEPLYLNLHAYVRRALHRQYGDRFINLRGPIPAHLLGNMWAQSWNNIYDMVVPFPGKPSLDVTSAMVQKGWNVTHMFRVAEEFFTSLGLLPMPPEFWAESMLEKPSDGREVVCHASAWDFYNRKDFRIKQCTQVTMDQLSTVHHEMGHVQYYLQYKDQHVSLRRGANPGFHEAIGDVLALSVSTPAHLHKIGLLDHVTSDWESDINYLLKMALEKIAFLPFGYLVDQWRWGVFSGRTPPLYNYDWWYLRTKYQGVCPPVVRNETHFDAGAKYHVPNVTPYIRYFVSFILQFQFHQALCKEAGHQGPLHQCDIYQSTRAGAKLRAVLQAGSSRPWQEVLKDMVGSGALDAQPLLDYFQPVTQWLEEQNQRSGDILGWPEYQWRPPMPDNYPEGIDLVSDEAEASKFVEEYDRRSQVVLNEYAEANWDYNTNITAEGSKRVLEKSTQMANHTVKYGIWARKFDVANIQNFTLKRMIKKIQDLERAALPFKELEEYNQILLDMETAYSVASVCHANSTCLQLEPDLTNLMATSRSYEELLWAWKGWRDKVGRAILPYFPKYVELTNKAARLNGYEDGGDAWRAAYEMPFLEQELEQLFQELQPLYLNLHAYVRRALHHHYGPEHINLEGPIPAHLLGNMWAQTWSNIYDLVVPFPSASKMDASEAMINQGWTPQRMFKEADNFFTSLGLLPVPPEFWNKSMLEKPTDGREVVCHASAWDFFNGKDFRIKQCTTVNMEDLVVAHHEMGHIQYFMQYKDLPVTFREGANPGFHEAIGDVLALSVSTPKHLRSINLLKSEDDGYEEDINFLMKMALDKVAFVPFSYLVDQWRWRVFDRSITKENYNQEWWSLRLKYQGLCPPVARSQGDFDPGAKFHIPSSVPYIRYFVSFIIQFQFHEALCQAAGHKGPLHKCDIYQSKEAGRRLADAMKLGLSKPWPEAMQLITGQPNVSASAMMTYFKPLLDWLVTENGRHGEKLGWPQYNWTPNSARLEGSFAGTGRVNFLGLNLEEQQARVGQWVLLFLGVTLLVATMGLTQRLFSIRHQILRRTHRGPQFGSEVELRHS
Kind of data set: biochemical. As for the experimental part:
Standards of rutin, quercetin, and quercetin’s glucosides were dissolved in 80% methanol. Each standard was diluted to various concentrations using deionized water to determine its ACE inhibitory activity, expressed as an IC50 value. The ACE stock solution was prepared by dissolving enzyme in glycerol at 50% with Buffer A (protein concentration approximately 150 μg/mL), whereas the working solution was prepared by the dilution of the stock solution with Buffer B to make a protein concentration of approximately 7.5 μg/mL. The substrate stock solution was prepared by dissolving the whole content (50 mg) of Abz-Gly-Phe (NO2)-Pro (Bachem) in 10.33 mL of Buffer C (concentration approximately 10 mM), while the working solution was prepared by the dilution of the substrate stock solution with Buffer C to make a final Abz-Gly-Phe (NO2)-Pro concentration of approximately 0.45 mM. […] The angiotensin-converting enzyme (ACE) inhibitory activity assay was conducted according to the method of Sentandreu and Toldra. The fluorescence generated was measured using a Tecan Infinite M1000 PRO multiscan microplate fluorometer (TK Biotech, Warsaw, Poland). To calculate the % of inhibition of ACE, the following equation was used: […] = 100 − (ΔRFUsample ∗ 100/ΔRFUnegative control) where ΔRFU = RFUat time 30 − RFUat time 0.
The IC50 value, indicating the sample concentration at a 50% inhibition of ACE activity, was determined using linear regression analysis of logarithmic plots. At least 3 replicates for each standard solution were conducted. Results were expressed as IC50 values.

Data set [5] is described as follows: Cyclic voltammetry: oxidation potential and antioxidant activity vs Trolox. Format: physicochemical. As to conditions: vs. Ag/AgCl, 50 mM acetate-acetic buffer (pH 5.5) in 80% methanol, scan rate 100 mV s^-1, n = 6.
The next data set concerns ACE. More on the design: method as in earlier work. The conditions noted are these: same fluorimetric method; ref 30 (Guerrero et al.); read-out: IC50 for ACE inhibition (literature); cited from earlier work.

In the case of `N=C(N)NN` [AG, aminoguanidine hydrochloride, reference compound], the IC50 in data set [1] is 432 ± 38 µM; in data set [2], 531 ± 28 µM.
As to `O=c1c(O[C@@H]2O[C@H](CO)[C@@H](O)[C@H](O)[C@H]2O)c(-c2ccc(O)c(O)c2)oc2cc(O)cc(O)c12` [Compound Q3G, quercetin-3-O-β-glucoside], in data set [3], the “Antioxidant power class based on first oxidation potential” value (“Antioxidant power class based” for short) is on record as “intermediate potentials (compounds with intermediate potentials (0.3 V < Ep < 0.8 V))” and the “Antioxidant Activity” value was 2.59 ± 0.04 ^b mM Trolox. The IC50 in data set [4] was found to be 135.2 ± 1.04 µM. Moreover, the IC50 in data set [1] was 47 ± 3 µM. In data set [2], the “anti-AGE activity higher in comparison to Ru” value is on record as 6%, the “anti-AGE activity higher in relation to AG” value is given as 37% and the IC50 amounted to 389 ± 22 µM. Moreover, the “First Oxidation Potential” value in data set [5] was 390 mV and 390 ± 4 ^d mV.
In turn, `N[C@@H](CCC(=O)N[C@@H](CS)C(=O)NCC(=O)O)C(=O)O` [GSH, reduced glutathione, reference compound] had an IC50 in data set [4] (IC50 for ACE inhibition, concentration range 1.0-0.01 mM, linear regression, n = 6) of 41.7 µM.
`O=c1c(O[C@@H]2O[C@H](CO)[C@@H](O)[C@H](O)[C@H]2O)c(-c2ccc(O[C@@H]3O[C@H](CO)[C@@H](O)[C@H](O)[C@H]3O)c(O)c2)oc2cc(O)cc(O)c12` [Q3,4′G, quercetin-3,4′-di-O-β-glucoside]: in data set [3], the “Antioxidant power class based” value is reported as “low antioxidant power (a compound with a low antioxidant power (0.8 V < Ep < 1.3 V))” and the “Antioxidant Activity” value was 1.07 ± 0.05 ^d mM Trolox. In data set [4], the IC50 amounted to 115 ± 1.25 µM. Further, the IC50 in data set [1] came to 89 ± 5 µM. In data set [2], the “anti-AGE activity higher in comparison to Ru” value is 27%, the “anti-AGE activity higher in relation to AG” value is listed as 64% and the IC50 was 324 ± 19 µM. Besides, the “First Oxidation Potential” value in data set [5] is 800 mV and 800 ± 7 ^a mV.
Regarding `O=c1c(O)c(-c2ccc(O[C@@H]3O[C@H](CO)[C@@H](O)[C@H](O)[C@H]3O)c(O)c2)oc2cc(O)cc(O)c12` [Q4′G, quercetin-4′-O-β-glucoside], in data set [3], the “Antioxidant power class based” value is listed as “intermediate potentials (compounds with intermediate potentials (0.3 V < Ep < 0.8 V))” and the “Antioxidant Activity” value is 1.99 ± 0.09 ^c mM Trolox. In addition, the IC50 in data set [4] is 143 ± 1.44 µM. In data set [1], the IC50 turned out to be 259 ± 16 µM. Moreover, in data set [2], the “anti-AGE activity higher in comparison to Ru” value came out at 11%, the “anti-AGE activity higher in relation to AG” value is recorded as 44% and the IC50 was 370 ± 23 µM. Moreover, in data set [5], the “First Oxidation Potential” value was 482 mV and 482 ± 3 ^b mV.
Turning to `O=c1c(O)c(-c2ccc(O)c(O)c2)oc2cc(O)cc(O)c12` [Q, quercetin], in data set [3], the “Antioxidant Activity” value is recorded as 3.92 ± 0.20 ^a mM Trolox. The IC50 in data set [4] was 59.29 ± 0.48 µM; in data set [1], 243 ± 12 µM; in data set [2], 466 ± 17 µM; in the data set with ACE, 43 µM. The “First Oxidation Potential” value in data set [5] was 310 mV and 310 ± 4 ^e mV.
For the compound `C[C@@H]1O[C@@H](OC[C@H]2O[C@@H](Oc3c(-c4ccc(O)c(O)c4)oc4cc(O)cc(O)c4c3=O)[C@H](O)[C@@H](O)[C@@H]2O)[C@H](O)[C@H](O)[C@H]1O` [Ru, quercetin-3-O-rutinoside], the “Antioxidant power class based” value in data set [3] is reported as “intermediate potentials (compounds with intermediate potentials (0.3 V < Ep < 0.8 V))”. Besides, the “Antioxidant Activity” value in data set [3] was 2.04 ± 0.07 ^c mM Trolox. Further, the IC50 is 121 ± 1.56 µM in data set [4], 197 ± 8 µM in data set [1], 413 ± 24 µM in data set [2] and 64 µM in the data set with ACE. The “First Oxidation Potential” value in data set [5] is 410 mV and 410 ± 5 ^c mV.
